# How the values were obtained:
# [1] = In vivo cytotoxicity (behaviour after i.v. injection); parameters: species or system Athymic nude mice; details: 1 mg i.v. tail vein; observed 30 min after injection and 15 min on following day
# Description: The behaviour of mice was observed during 30 min right after injection and during 15 min on the following day (comparison to non-injected mouse). Three mice were taken into this study (plus non-injected controls).
# [2] = Immunogenicity: immunization of mice and serological antibody ELISA; type: in vivo, balb/c female mice; details: i.p. 50 μg day 0, 25 μg days 14, 28, 56, 84; end point bleed day 98, serum 1:40; HP201 as capture antigen
# Description: Mice and immunization. Female 6- to 8-week old balb/c female mice (Harlan Laboratories, The Netherlands) were used in this study. The targeting unit IS257 (described in Example 3) was dissolved in sterile saline at 0.5 mg/ml and 0.25 mg/ml concentrations. A group of five mice were initially immunized intraperitoneally with 50 μg of targeting unit on day 0. The following immunizations were done with 25 μg of targeting unit on days 14, 28, 56 and 84. Mice were bled from the tail vein on day 0 (preimmune bleed) and thereafter on days 42, 70, and 98 (end point bleed). Blood was collected in tubes and the serum was clarified by centrifugation at 3500 RPM for 7 minutes. […]
# Serological antibody assay. […] The wells were washed five times with washing buffer (PBS containing 0.05% Tween20) before incubating for 1 h at 37° C. with 150 μl of a 1:1000 dilution of horseradish peroxidase conjugated Affinipure of goat anti-mouse IgG+IgM (Jackson ImmunoResearch Europe Ltd) and detected with a DAB (3,3′-diaminobentzidine) substrate kit for peroxidase (Vector Laboratories).
# As a positive control the horseradish peroxidase conjugated Affinipure goat anti-mouse IgG+IgM (10 μg/ml) was used to coat the wells of Reacti-Bind Maleimide activated clear strip plate overnight at 4° C. […] The plates were read at 405 nm using an ELISA plate reader (ThermoLabsysrems Multiskan EX).
# [3] = system: A549 cells; test: Fluorescent targeting agent staining of fixed cells; type: cell-based, human; details: 500 μg/ml in PBS, pH 7.4, added prior to F5M-A49
# Description: A549 cells and HeLa cells (described in Example 18) were grown on glass slides, washed with PBS and then fixed with methanol. The fluorescent targeting agent F5M-A49 (described in Example 10) was used to stain these cells as follows: Cells were first blocked with blocking buffer (1.0% BSA, 0.05% Tween20 in PBS, pH 7.4) for one hour at 20° C. The cells on the glass slides were incubated with 20 μl of F5M-A49 targeting agent (50 μg/ml in PBS, pH 7.4). As control, binding of F5M-A49 was competed with 20 μl of IS257 targeting unit (free peptide described in Example 3), 500 μg/ml in PBS, pH 7.4) prior to addition of the targeting agent. As negative controls, cells not incubated with any targeting agent were used. After the staining the cells were mounted on object glasses with mountex (Histolab Products Ltd). After this cells were viewed under a fluorescent microscope (Carl Zeiss Microscopy, Jena, Germany).
# [4] = system: A549, NCI-H23, NCI-H520, NCI-H460, C8161/M1, HeLa, NIH3T3, E10V, SVEC4-10 cell lines; test: Cytotoxicity assay (MTT); type: cell-based; details: 50 μg/ml and 500 μg/ml; 24 h, 48 h (72 h); all nine tested cell lines
# Description: In this assay cell lines were exposed to two different concentrations (50 μg/and 500 μg/ml) of IS257 targeting unit (described in Example 3) for two to three days to test the toxicity of the peptides. The measurement of cell viability was done with MTT (Thiazolyl blue, Sigma M-5655 ) tetrazolium salt. MTT is cleaved to water-insoluble formazan dye by the “succinate-tetrazolium reductase” system which is active only in viable cells. After formazan was solubilized by 10% SDS-0.01 M HCl, it was quantified in an ELISA spectrometer (ThermoLabsystems Multiscan EX) at 560 nm. CuSAO2 [trans-bis(salicylaldoximato) copper(II)] (Elo HO, Lumme PO., 1985) 7.5 μg/ml was used as a positive control for 100% toxicity.
# Procedure. Cells were trypsinized from the cell culture dish (ø9 cm) with 1 ml of TE for 1-5 minutes and moved to a 50 ml Falcon tube. […]
# Then 40 μl of IS257 targeting unit in appropriate medium were added to the wells in two concentrations, so that final concentrations were 50 μg/ml and 500 μg/ml, and the volume of the wells was raised back to 100 μl. […] The next day the cell morphology was analyzed with a microscope. […]
# The next day, the MTT assay described above was performed. The viable count (v.c.) was calculated as:
# Average toxicated cell absorbance−Average DMEM absorbance=Viable count Average living cell absorbance−Average DMEM absorbance […]
substance,measurement,setting,value
Ac-ARRPKLD-NH2 [IS257],toxic effect on mice (behaviour),[1],did not have any toxic effect
same,"immunogenicity (anti-targeting unit antibodies in serum, ELISA, absorbance at 405 nm)",[2],non-immunogenic
same,competition of F5M-A49 binding to A549 cells by free peptide,[3],blocked
same,"toxicity to cell lines (viable count, MTT)",[4],non-toxic

# From patent US20090180958A1, “Diagnostic and therapeutic agents” (Karyon-CTT Ltd., priority 2005, published 2009)
